Test results as given in patent US12497365B2, “4-pyridinyl formamide compound or derivative thereof, preparation method therefor, herbicidal composition and use thereof” (Qingdao Kingagroot Chemical Compound Co., Ltd., priority 2019, dated 2025).

Assays:
Assay in all cases: Weeding effect in post-emergence stage
Type in all cases: in vivo
Conditions in all cases: active ingredient 2000 g/ha, 3 weeks after application, fresh weight control rate
[1] = system: Chenopodium album
Method in brief: (§1)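 Read-out is growth control rate based on fresh weight, assessed 3 weeks after treatment in the greenhouse. Plants were sprayed at the 2-3 leaf stage with compound dissolved in acetone, plus Tween 80 and methyl oleate emulsifiable concentrate, at doses from 125 to 2000 g/ha.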

[2] = system: Abutilon theophrasti
Method in brief: as §1

[3] = system: Amaranthus retroflexus L.
Method in brief: as §1

[4] = system: Descurainia sophia
Method in brief: as §1

Structure (SMILES) | Weeding effect, activity level (growth control rate), Chenopodium album [1] | Weeding effect, activity level (growth control rate), Abutilon theophrasti [2] | Weeding effect, activity level (growth control rate), Amaranthus retroflexus L. [3] | Weeding effect, activity level (growth control rate), Descurainia sophia [4]
CCn1nnnc1NC(=O)c1ccnc(-c2ccc(F)cc2)c1Cl [Compound 1-307] | 5 (Level 5: growth control rate is above 85%) | 5 (Level 5: growth control rate is above 85%) | 5 (Level 5: growth control rate is above 85%) | 5 (Level 5: growth control rate is above 85%)
Cn1ncnc1NC(=O)c1ccnc(-c2ccc(F)cc2)c1Cl [Compound 1-334] | 5 (Level 5: growth control rate is above 85%) | 5 (Level 5: growth control rate is above 85%) | 5 (Level 5: growth control rate is above 85%) | 5 (Level 5: growth control rate is above 85%)
Cc1nnc(NC(=O)c2ccnc(-c3ccc(F)cc3)c2Cl)n1C [Compound 1-650] | 5 (Level 5: growth control rate is above 85%) | 5 (Level 5: growth control rate is above 85%) | 5 (Level 5: growth control rate is above 85%) | 5 (Level 5: growth control rate is above 85%)
Cc1nnc(NC(=O)c2ccnc(-c3ccc(F)cc3)c2Cl)o1 [Compound 1-962] | 5 (Level 5: growth control rate is above 85%) | 5 (Level 5: growth control rate is above 85%) | 5 (Level 5: growth control rate is above 85%) | 5 (Level 5: growth control rate is above 85%)
O=C(Nc1nnc(C2CC2)o1)c1ccnc(-c2ccc(F)cc2)c1Cl [Compound 1-1257] | 5 (Level 5: growth control rate is above 85%) | 5 (Level 5: growth control rate is above 85%) | 5 (Level 5: growth control rate is above 85%) | 5 (Level 5: growth control rate is above 85%)
O=C(Nc1ccon1)c1ccnc(-c2ccc(F)cc2)c1Cl [Compound 1-1286] | 5 (Level 5: growth control rate is above 85%) | 5 (Level 5: growth control rate is above 85%) | 5 (Level 5: growth control rate is above 85%) | 5 (Level 5: growth control rate is above 85%)
Cc1conc1NC(=O)c1ccnc(-c2ccc(F)cc2)c1Cl [Compound 1-1577] | 5 (Level 5: growth control rate is above 85%) | 5 (Level 5: growth control rate is above 85%) | 5 (Level 5: growth control rate is above 85%) | 5 (Level 5: growth control rate is above 85%)
O=C(Nc1ncco1)c1ccnc(-c2ccc(F)cc2)c1Cl [Compound 1-1607] | 5 (Level 5: growth control rate is above 85%) | 5 (Level 5: growth control rate is above 85%) | 5 (Level 5: growth control rate is above 85%) | 5 (Level 5: growth control rate is above 85%)
C=Cc1ccc(-c2nccc(C(=O)Nc3nnnn3C)c2Cl)cc1 [Compound 1-1918] | 5 (Level 5: growth control rate is above 85%) | 5 (Level 5: growth control rate is above 85%) | 5 (Level 5: growth control rate is above 85%) | 5 (Level 5: growth control rate is above 85%)
CN(C)C(=O)c1ccc(-c2nccc(C(=O)Nc3nnnn3C)c2Cl)cc1 [Compound 1-1925] | 5 (Level 5: growth control rate is above 85%) | 5 (Level 5: growth control rate is above 85%) | 5 (Level 5: growth control rate is above 85%) | 5 (Level 5: growth control rate is above 85%)
Cn1nnnc1NC(=O)c1ccnc(-c2cccc3c2OC(F)(F)O3)c1Cl [Compound 1-1972] | 5 (Level 5: growth control rate is above 85%) | 5 (Level 5: growth control rate is above 85%) | 5 (Level 5: growth control rate is above 85%) | 5 (Level 5: growth control rate is above 85%)
Cn1nnnc1NC(=O)c1ccnc(-c2ccc(CNC(=O)OC(C)(C)C)s2)c1Cl [Compound 1-2004] | 5 (Level 5: growth control rate is above 85%) | 5 (Level 5: growth control rate is above 85%) | 5 (Level 5: growth control rate is above 85%) | 5 (Level 5: growth control rate is above 85%)
Cn1nnnc1NC(=O)c1ccnc(-c2ccc[nH]2)c1Cl [Compound 1-2006] | 5 (Level 5: growth control rate is above 85%) | 5 (Level 5: growth control rate is above 85%) | 5 (Level 5: growth control rate is above 85%) | 5 (Level 5: growth control rate is above 85%)
Cn1nnnc1NC(=O)c1ccnc(-c2cc3ccccc3o2)c1Cl [Compound 1-2010] | 5 (Level 5: growth control rate is above 85%) | 5 (Level 5: growth control rate is above 85%) | 5 (Level 5: growth control rate is above 85%) | 5 (Level 5: growth control rate is above 85%)
Cn1nnnc1NC(=O)c1ccnc(-c2ccc(C#N)cc2)c1F [Compound 1-2016] | 5 (Level 5: growth control rate is above 85%) | 5 (Level 5: growth control rate is above 85%) | 5 (Level 5: growth control rate is above 85%) | 5 (Level 5: growth control rate is above 85%)
COc1c(C(=O)Nc2nnnn2C)ccnc1-c1ccc(C#N)cc1 [Compound 1-2029] | 5 (Level 5: growth control rate is above 85%) | 5 (Level 5: growth control rate is above 85%) | 5 (Level 5: growth control rate is above 85%) | 5 (Level 5: growth control rate is above 85%)
CN(C)c1c(C(=O)Nc2nnnn2C)ccnc1-c1ccc(Cl)cc1 [Compound 1-2044] | 5 (Level 5: growth control rate is above 85%) | 5 (Level 5: growth control rate is above 85%) | 5 (Level 5: growth control rate is above 85%) | 5 (Level 5: growth control rate is above 85%)
CSc1c(C(=O)Nc2nnnn2C)ccnc1-c1ccc(C#N)cc1 [Compound 1-2052] | 5 (Level 5: growth control rate is above 85%) | 5 (Level 5: growth control rate is above 85%) | 5 (Level 5: growth control rate is above 85%) | 5 (Level 5: growth control rate is above 85%)
CSc1c(C(=O)Nc2nnnn2C)ccnc1-c1ccc(C(N)=O)cc1 [Compound 1-2053] | 5 (Level 5: growth control rate is above 85%) | 5 (Level 5: growth control rate is above 85%) | 5 (Level 5: growth control rate is above 85%) | 5 (Level 5: growth control rate is above 85%)
